The test system of test [1] is ISC-enriched organoids. The test can be described thus: Primary screen, 384-well 2.5-D organoid differentiation (ENR+CD, 6 days): basal lysozyme secretion (LYZ.NS). The test is classed as cell-based, murine. The following applies: for Dose.FC.LYZ.NS: primary screen, FC vs plate median; for Z.LYZ.NS: standard z score of FC. From the text:
(§1) High-throughput screening.

Test [2] deals with ISC-enriched organoids. The test can be described thus: Primary screen, 384-well 2.5-D organoid differentiation (ENR+CD, 6 days): carbachol-induced lysozyme secretion (LYZ.S). The test is classed as cell-based, murine. The following applies: primary screen, FC vs plate median.
Excerpt: as §1

The subject of test [3] is ISC-enriched organoids. The test can be described thus: Primary screen, 384-well 2.5-D organoid differentiation (ENR+CD, 6 days, Target Selective Inhibitor Library, vs whole-plate median): ATP (CellTiter-Glo 3D, CTG). Particulars: for Dose.FC.CTG: primary screen, FC vs plate median; for Z.CTG: standard z score of FC. (In general: In ATP-based viability assays light output follows the ATP content of the culture.)

For the molecule `C=CCc1cccc(/C=N/NC(=O)CN2CCN(Cc3ccccc3)CC2)c1O` [PAC-1], the Dose.FC.LYZ.NS worked out at 0.157 log 2 fold change in the test on ISC-enriched organoids [1] (Dose 0.08 uM), 0.053 log 2 fold change with ISC-enriched organoids [1] (Dose 0.40 uM), 0.126 log 2 fold change in the test on ISC-enriched organoids [1] (Dose 2.00 uM) and 0.068 log 2 fold change with ISC-enriched organoids [1] (Dose 10.00 uM). Further, the Z.LYZ.NS was found to be 1.365 with ISC-enriched organoids [1] (Dose 0.08 uM), 0.457 in the test with ISC-enriched organoids [1] (Dose 0.40 uM), 1.094 in the test with ISC-enriched organoids [1] (Dose 2.00 uM) and 0.596 with ISC-enriched organoids [1] (Dose 10.00 uM). Besides, the Dose.FC.LYZ.S in the test with ISC-enriched organoids [2] (Dose 0.08 uM) was 0.128 log 2 fold change; with ISC-enriched organoids [2] (Dose 0.40 uM) it was 0.059 log 2 fold change; with ISC-enriched organoids [2] (Dose 2.00 uM) it was −0.006 log 2 fold change; in the test with ISC-enriched organoids [2] (Dose 10.00 uM), 0.092 log 2 fold change. The Dose.FC.CTG with ISC-enriched organoids [3] (Dose 0.08 uM) is 0.095 log 2 fold change; with ISC-enriched organoids [3] (Dose 0.40 uM), 0.113 log 2 fold change; in the test with ISC-enriched organoids [3] (Dose 2.00 uM), −0.241 log 2 fold change; in the test on ISC-enriched organoids [3] (Dose 10.00 uM), 0.002 log 2 fold change. Besides, the Z.CTG in the test with ISC-enriched organoids [3] (Dose 0.08 uM) is 0.228; in the test on ISC-enriched organoids [3] (Dose 0.40 uM), 0.270; in the test with ISC-enriched organoids [3] (Dose 2.00 uM) it was −0.576; in the test with ISC-enriched organoids [3] (Dose 10.00 uM), 0.004.
Consider `O=C(NOCC1CC1)c1ccc(F)c(F)c1Nc1ccc(I)cc1Cl` [PD184352 (CI-1040)], for which the Dose.FC.LYZ.NS with ISC-enriched organoids [1] (Dose 0.08 uM) is listed as −0.019 log 2 fold change; in the test with ISC-enriched organoids [1] (Dose 0.40 uM), −0.053 log 2 fold change; in the test with ISC-enriched organoids [1] (Dose 2.00 uM), −0.135 log 2 fold change; in the test on ISC-enriched organoids [1] (Dose 10.00 uM) it was −0.116 log 2 fold change. Moreover, the Z.LYZ.NS in the test on ISC-enriched organoids [1] (Dose 0.08 uM) is recorded as −0.162; in the test on ISC-enriched organoids [1] (Dose 0.40 uM), −0.458; in the test with ISC-enriched organoids [1] (Dose 2.00 uM), −1.176; in the test with ISC-enriched organoids [1] (Dose 10.00 uM), −1.011. Moreover, the Dose.FC.LYZ.S is reported as −0.019 log 2 fold change in the test with ISC-enriched organoids [2] (Dose 0.08 uM), −0.047 log 2 fold change with ISC-enriched organoids [2] (Dose 0.40 uM), −0.178 log 2 fold change in the test on ISC-enriched organoids [2] (Dose 2.00 uM) and −0.239 log 2 fold change in the test on ISC-enriched organoids [2] (Dose 10.00 uM). Also, the Dose.FC.CTG with ISC-enriched organoids [3] (Dose 0.08 uM) is 0.366 log 2 fold change; in the test with ISC-enriched organoids [3] (Dose 0.40 uM), 0.261 log 2 fold change; in the test with ISC-enriched organoids [3] (Dose 2.00 uM), −0.212 log 2 fold change; with ISC-enriched organoids [3] (Dose 10.00 uM) it was −0.796 log 2 fold change. Also, the Z.CTG with ISC-enriched organoids [3] (Dose 0.08 uM) is recorded as 0.874; in the test on ISC-enriched organoids [3] (Dose 0.40 uM), 0.624; with ISC-enriched organoids [3] (Dose 2.00 uM) it was −0.506; in the test on ISC-enriched organoids [3] (Dose 10.00 uM), −1.901.
On to `O=C(Nc1cccnc1)N1CCC(Cc2cccc(Oc3ccc(C(F)(F)F)cn3)c2)CC1` [PF-3845], for which the Dose.FC.LYZ.NS with ISC-enriched organoids [1] (Dose 0.08 uM) is listed as 0.061 log 2 fold change; in the test with ISC-enriched organoids [1] (Dose 0.40 uM), −0.077 log 2 fold change; in the test with ISC-enriched organoids [1] (Dose 2.00 uM) it was −0.015 log 2 fold change; in the test with ISC-enriched organoids [1] (Dose 10.00 uM) it was −0.131 log 2 fold change. In addition, the Z.LYZ.NS was 0.532 in the test on ISC-enriched organoids [1] (Dose 0.08 uM), −0.668 in the test on ISC-enriched organoids [1] (Dose 0.40 uM), −0.131 in the test on ISC-enriched organoids [1] (Dose 2.00 uM) and −1.137 with ISC-enriched organoids [1] (Dose 10.00 uM). Further, the Dose.FC.LYZ.S in the test with ISC-enriched organoids [2] (Dose 0.08 uM) was 0.027 log 2 fold change; with ISC-enriched organoids [2] (Dose 0.40 uM), −0.061 log 2 fold change; in the test with ISC-enriched organoids [2] (Dose 2.00 uM), −0.032 log 2 fold change; in the test on ISC-enriched organoids [2] (Dose 10.00 uM), −0.195 log 2 fold change. Moreover, the Dose.FC.CTG was −0.047 log 2 fold change in the test with ISC-enriched organoids [3] (Dose 0.08 uM), 0.052 log 2 fold change in the test with ISC-enriched organoids [3] (Dose 0.40 uM), −0.103 log 2 fold change in the test on ISC-enriched organoids [3] (Dose 2.00 uM) and −0.286 log 2 fold change with ISC-enriched organoids [3] (Dose 10.00 uM). Also, the Z.CTG is given as −0.112 in the test with ISC-enriched organoids [3] (Dose 0.08 uM), 0.125 with ISC-enriched organoids [3] (Dose 0.40 uM), −0.246 in the test with ISC-enriched organoids [3] (Dose 2.00 uM) and −0.684 in the test with ISC-enriched organoids [3] (Dose 10.00 uM).
Take `CN(c1ncccc1CNc1nc(Nc2ccc3c(c2)CC(=O)N3)ncc1C(F)(F)F)S(C)(=O)=O` [PF-562271]: the Dose.FC.LYZ.NS with ISC-enriched organoids [1] (Dose 0.08 uM) was −0.068 log 2 fold change; in the test on ISC-enriched organoids [1] (Dose 0.40 uM), −0.152 log 2 fold change; in the test with ISC-enriched organoids [1] (Dose 2.00 uM) it was −0.234 log 2 fold change; in the test on ISC-enriched organoids [1] (Dose 10.00 uM), −0.251 log 2 fold change. Further, the Z.LYZ.NS with ISC-enriched organoids [1] (Dose 0.08 uM) is −0.589; with ISC-enriched organoids [1] (Dose 0.40 uM), −1.325; in the test with ISC-enriched organoids [1] (Dose 2.00 uM) it was −2.034; in the test with ISC-enriched organoids [1] (Dose 10.00 uM) it was −2.184. Further, the Dose.FC.LYZ.S in the test with ISC-enriched organoids [2] (Dose 0.08 uM) is listed as −0.088 log 2 fold change; in the test on ISC-enriched organoids [2] (Dose 0.40 uM), −0.214 log 2 fold change; in the test on ISC-enriched organoids [2] (Dose 2.00 uM) it was −0.332 log 2 fold change; in the test on ISC-enriched organoids [2] (Dose 10.00 uM), −0.414 log 2 fold change. In addition, the Dose.FC.CTG in the test with ISC-enriched organoids [3] (Dose 0.08 uM) is on record as −0.114 log 2 fold change; with ISC-enriched organoids [3] (Dose 0.40 uM) it was −0.217 log 2 fold change; in the test with ISC-enriched organoids [3] (Dose 2.00 uM), −0.549 log 2 fold change; in the test with ISC-enriched organoids [3] (Dose 10.00 uM), −0.949 log 2 fold change. Also, the Z.CTG in the test on ISC-enriched organoids [3] (Dose 0.08 uM) is reported as −0.273; in the test with ISC-enriched organoids [3] (Dose 0.40 uM), −0.518; in the test on ISC-enriched organoids [3] (Dose 2.00 uM) it was −1.311; in the test on ISC-enriched organoids [3] (Dose 10.00 uM), −2.266.
`CS(=O)(=O)c1cccc(CNc2nc(Nc3ccc4c(c3)CCC(=O)N4)ncc2C(F)(F)F)c1` [PF-573228]: the Dose.FC.LYZ.NS with ISC-enriched organoids [1] (Dose 0.08 uM) is reported as 0.010 log 2 fold change; in the test on ISC-enriched organoids [1] (Dose 0.40 uM), −0.046 log 2 fold change; in the test with ISC-enriched organoids [1] (Dose 2.00 uM) it was −0.058 log 2 fold change; in the test with ISC-enriched organoids [1] (Dose 10.00 uM) it was −0.250 log 2 fold change. The Z.LYZ.NS in the test with ISC-enriched organoids [1] (Dose 0.08 uM) is reported as 0.089; in the test on ISC-enriched organoids [1] (Dose 0.40 uM), −0.401; with ISC-enriched organoids [1] (Dose 2.00 uM), −0.502; in the test on ISC-enriched organoids [1] (Dose 10.00 uM), −2.180. The Dose.FC.LYZ.S with ISC-enriched organoids [2] (Dose 0.08 uM) was 0.114 log 2 fold change; in the test on ISC-enriched organoids [2] (Dose 0.40 uM), 0.002 log 2 fold change; with ISC-enriched organoids [2] (Dose 2.00 uM), −0.174 log 2 fold change; in the test with ISC-enriched organoids [2] (Dose 10.00 uM), −0.305 log 2 fold change. Also, the Dose.FC.CTG was 0.077 log 2 fold change in the test on ISC-enriched organoids [3] (Dose 0.08 uM), −0.054 log 2 fold change in the test on ISC-enriched organoids [3] (Dose 0.40 uM), −0.434 log 2 fold change in the test on ISC-enriched organoids [3] (Dose 2.00 uM) and −0.497 log 2 fold change with ISC-enriched organoids [3] (Dose 10.00 uM). Further, the Z.CTG is 0.183 in the test on ISC-enriched organoids [3] (Dose 0.08 uM), −0.129 with ISC-enriched organoids [3] (Dose 0.40 uM), −1.037 in the test with ISC-enriched organoids [3] (Dose 2.00 uM) and −1.188 with ISC-enriched organoids [3] (Dose 10.00 uM).
As to `OCCn1cc(-c2cnc3nnn(Cc4ccc5ncccc5c4)c3n2)cn1` [PF-04217903], the Dose.FC.LYZ.NS with ISC-enriched organoids [1] (Dose 0.08 uM) came out at 0.085 log 2 fold change; in the test with ISC-enriched organoids [1] (Dose 0.40 uM), 0.161 log 2 fold change; with ISC-enriched organoids [1] (Dose 2.00 uM), 0.122 log 2 fold change; with ISC-enriched organoids [1] (Dose 10.00 uM) it was 0.071 log 2 fold change. The Z.LYZ.NS was determined as 0.742 in the test on ISC-enriched organoids [1] (Dose 0.08 uM), 1.404 in the test on ISC-enriched organoids [1] (Dose 0.40 uM), 1.060 in the test with ISC-enriched organoids [1] (Dose 2.00 uM) and 0.617 in the test on ISC-enriched organoids [1] (Dose 10.00 uM). Moreover, the Dose.FC.LYZ.S in the test on ISC-enriched organoids [2] (Dose 0.08 uM) is listed as 0.110 log 2 fold change; in the test on ISC-enriched organoids [2] (Dose 0.40 uM) it was 0.265 log 2 fold change; in the test on ISC-enriched organoids [2] (Dose 2.00 uM), 0.049 log 2 fold change; in the test on ISC-enriched organoids [2] (Dose 10.00 uM), 0.127 log 2 fold change. The Dose.FC.CTG is reported as 0.136 log 2 fold change with ISC-enriched organoids [3] (Dose 0.08 uM), 0.258 log 2 fold change in the test on ISC-enriched organoids [3] (Dose 0.40 uM), −0.051 log 2 fold change with ISC-enriched organoids [3] (Dose 2.00 uM) and 0.116 log 2 fold change in the test with ISC-enriched organoids [3] (Dose 10.00 uM). Besides, the Z.CTG in the test with ISC-enriched organoids [3] (Dose 0.08 uM) is given as 0.326; in the test with ISC-enriched organoids [3] (Dose 0.40 uM), 0.616; in the test on ISC-enriched organoids [3] (Dose 2.00 uM) it was −0.122; in the test with ISC-enriched organoids [3] (Dose 10.00 uM), 0.276.

For the origin of these results see patent US20230398130A1, “METHODS AND COMPOSITIONS FOR DIFFERENTIATING STEM CELLS” (Massachusetts Institute of Technology, priority 2020, published 2023).
